Data published in patent US4606860A, “Rhodanines useful as a therapeutic agent for diabetic complications” (Kaken Pharmaceutical Co., Ltd., priority 1984, dated 1986).
Where a name gives a salt, the structure may show the parent alone. Read-outs that look alike come from different tables or passages of the source.

Assays:
aldose reductase = biological target: T1, aldose reductase (Rattus norvegicus, UniProt P07943); assay: Aldose reductase inhibiting activity (crude enzyme from rat lens, NADPH absorbance at 340 nm); assay type: biochemical, rat (Wistar strain); conditions: DL-glyceraldehyde 10 mM, NADPH 0.104 mM, pH 6.2, Table 4, read-out: IC50 (50% inhibition concentration), aldose reductase
T1 construct: the supernatant was used as the crude enzyme solution; from tissue; host or cells: lens of male Wistar rats (10,000 g supernatant of homogenate, crude enzyme)
Description: Thus, Wistar strain male rats were sacrificed by decapitation, the lenses were excised and homogenized with a 0.1 M phosphate buffer [pH 6.8; containing 1 mM of mercaptoethanol and 1 mM of nicotinamide-adenine dinucleotide phosphate (NADP)]. The homogenate was then centrifuged at 10,000 g for 15 minutes and the supernatant was used as the crude enzyme solution.
To this buffer solution, there was added 15 μl of each of solutions of each test compound in varied concentrations, followed by addition of 25 μl of the crude enzyme solution prepared in advance, to thereby initiate the reaction.

[1] = test system: thrombin-induced aggregation of washed rabbit platelets; assay: Platelet aggregation inhibiting activity (thrombin-stimulated washed rabbit platelets, aggregometer); assay type: cell-based, rabbit (albino, white local breed); conditions: for IC50: Oryctolagus cuniculus, Platelet; for platelet aggregation inhibiting activity, in words: comparison with other compounds or Dipyridamole (Persantine)
Description: The platelets were suspended in a 15 mM Tris-hydrochloric acid buffer in a final concentration of 6×10^8 cells/ml (Tris: tris(hydroxymethyl)aminomethane). Each test compound was added thereto and incubation was carried out at 37° C. for 2 minutes. Then, the platelets were stimulated by addition of thrombin (final concentration 0.2 unit/ml; made by Mochida Pharmaceutical Co.) and the aggregation inhibiting activity was estimated by observation of the aggregation reaction using an aggregometer (made by Briston Co.).

[2] = Acute toxicity in mice (oral); assay type: in vivo; conditions: mouse, in vivo, male ddY mice, 2 weeks
Text: (§1) The acute toxicity in mice was examined with the rhodanine derivative (I) of the present invention.

male ddY strain mice = assay: Acute toxicity in mice (oral); assay type: in vivo; conditions: 2 weeks
Text: as §1

[3] = 2 min, read-out: IC50 (50 % inhibition concentration), platelet aggregation
[4] = washed rabbit platelets, read-out: concentration inhibiting thrombin-induced aggregation by 50%
[5] = 2 min, washed rabbit platelets 6×10^8 cells/ml, thrombin 0.2 unit/ml, 37° C., 2 minutes, Table 3, read-out: IC50 (50 % inhibition concentration), platelet aggregation

IC50 (aldose reductase) [µM]	SMILES	IC50 [1, 4] [µM]	platelet aggregation inhibiting activity, in words [1]	further results
1.3	CNC=C1SC(=S)N(CC(=O)O)C1=O [Compound No. 1, 3-Carboxymethyl-5-methylaminomethylidenerhodanine]			
0.65	CN(C)C=C1SC(=S)N(CC(=O)O)C1=O [Compound No. 2, 3-Carboxymethyl-5-dimethylaminomethylidenerhodanine]			
0.7	O=C(O)CN1C(=O)C(=CNCCO)SC1=S [Compound No. 3, Ethanolamine salt of 3-Carboxymethyl-5-hydroxyethylaminomethylidenerhodanine]			
0.3	C=CCNC=C1SC(=S)N(CC(=O)O)C1=O [Compound No. 4, 3-Carboxymethyl-5allylaminomethylidenerhodanine]			
0.6	CC(C)CNC=C1SC(=S)N(CC(=O)O)C1=O [Compound No. 5, 3-Carboxymethyl-5-isobutylaminomethylidenerhodanine]			
0.28	CCCCCCNC=C1SC(=S)N(CC(=O)O)C1=O [Compound No. 6, 3-Carboxymethyl-5-hexylaminomethylidenerhodanine]			
0.05	COc1ccccc1NC=C1SC(=S)N(CC(=O)O)C1=O [Compound No. 8, 3-Carboxymethyl-5-o-methoxyphenylaminomethylidenerhodanine]	300	almost comparable in said activity to Dipyridamole	IC50 [1, 5]: 310 µM
0.05	O=C(O)CN1C(=O)C(=CNc2ccc(Br)cc2)SC1=S [Compound No. 10, 3-Carboxymethyl-5-p-bromophenylaminomethylidenerhodanine]	300	almost comparable in said activity to Dipyridamole	IC50 [1, 5]: 300 µM
0.34	O=C(O)CN1C(=O)C(=CN2CCOCC2)SC1=S [Compound No. 12, 3-Carboxymethyl-5-morpholinomethylidenerhodanine]			
0.2	CN1CCN(C=C2SC(=S)N(CC(=O)O)C2=O)CC1 [Compound No. 13, 3-Carboxymethyl-5-N-methylpiperazinomethylidenerhodanine]			
1.3	CN1CCCN(C=C2SC(=S)N(CC(=O)O)C2=O)CC1 [Compound No. 14, 3-Carboxymethyl-5-N-methylhomopiperazinomethylidenerhodanine]			
	OCCN(CCO)c1nc(N2CCCCC2)c2nc(N(CCO)CCO)nc(N3CCCCC3)c2n1 [Dipyridamole, reference compound]			IC50 [1, 5]: 200 µM

SMILES	IC50 (aldose reductase) [µM]	IC50 [1, 4] [µM]	platelet aggregation inhibiting activity, in words [1]	further results
COc1cccc(NC=C2SC(=S)N(CC(=O)O)C2=O)c1 [Compound No. 7, 3-Carboxymethyl-5-m-methoxyphenylaminomethylidene-rhodanine]	0.026	300	almost comparable in said activity to Dipyridamole	IC50 [1, 3]: 310 µM; LD50 at 336 h [2]: > 4000 mg/kg; deaths noted up to a dose of 4 g/kg body weight (male ddY strain mice): no deaths were noted
O=C(O)CN1C(=O)C(=CNc2cccc(Cl)c2)SC1=S [Compound No. 9, 3-Carboxymethyl-5-m-chlorophenylaminomethylidenerhodanine]	0.023	300	almost comparable in said activity to Dipyridamole	LD50 at 336 h [2]: > 4000 mg/kg; deaths noted up to a dose of 4 g/kg body weight (male ddY strain mice): no deaths were noted
Cc1cccc(NC=C2SC(=S)N(CC(=O)O)C2=O)c1 [Compound No. 11, 3-Carboxymethyl-5-m-methylphenylaminomethylidenerhodanine]	0.036	300	almost comparable in said activity to Dipyridamole	IC50 [1, 3]: 320 µM; LD50 at 336 h [2]: > 4000 mg/kg; deaths noted up to a dose of 4 g/kg body weight (male ddY strain mice): no deaths were noted
O=C(O)CN1C(=O)C(=CNc2ccccc2-c2ccccc2)SC1=S [Compound No. 15, 3-Carboxymethyl-5-(2-biphenylyl)aminomethylidenerhodanine]	0.15			IC50 [1, 3]: 410 µM; LD50 at 336 h [2]: > 4000 mg/kg; deaths noted up to a dose of 4 g/kg body weight (male ddY strain mice): no deaths were noted
